Reference: the supplement of paper PMC10784567
± gives the standard deviation of the averaged measurements.

These test systems were tested with C=C1C[C@H]2C=Nc3cc(OCCCCCOc4cc5c(cc4OC)C(=O)N4CC(=C)C[C@H]4C=N5)c(OC)cc3C(=O)N2C1 [SG2057] (assay: absolute IC50 (cell viability, CellTiter-Glo); higher = less potent). Details: treatment time: 3 days.
Procedure: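 Large cancer cell line panel screens in 384-well plates. Cells were treated for 3 days with a 9-point dose titration of the free PBD dimer SG2057; viability was read with CellTiter-Glo. Absolute IC50 came from a four-parameter Hill fit normalised to the median of vehicle (DMSO) wells. Several independent screens (projects) per cell line are averaged; values in µM, lowest-dose floor about 1.524e-5 µM.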

Row | Test System | absolute IC50 [nM]
1 | SW 948 | 3.39 ± 3.9
2 | Hs 746T | 1.81 ± 3.4
3 | JJN-3 | 0.816 ± 1.7
4 | 4498-1636 Mel-nBR1 | 0.565
5 | C170 | 2.97 ± 1.1
6 | ECC-1 | 1.04
7 | SKG-II | 0.0743
8 | NCI-H1869 | 2.35
9 | HCC1534 | 3.18 ± 2.4
10 | COR-L26 | 0.211 ± 0.31
11 | SNU-484 | 0.327 ± 0.11
12 | KMS-34 | 0.272 ± 0.27
13 | MCF 10A | 3.78 ± 2.7
14 | AMO-1 | 0.409 ± 0.15
15 | HEL | 0.067 ± 0.0071
16 | NCI-H2122 | 2.98 ± 1.3
17 | Renca | 10.3 ± 12
18 | HCC89 | 4.66 ± 3.1
19 | Ishikawa | 0.311
20 | HCA-1 | 4.69
21 | KP-N-SI9s | 0.0551
22 | HLE | 2.7
23 | TC-71 | < 0.0152
24 | NB-1 | < 0.0152

Row | Test System | absolute IC50 [nM]
25 | SNU-475 | 2.56 ± 3.8
26 | OCI-AML5 | 0.0729 ± 0.11
27 | BT-20 | 1.72 ± 0.74
28 | SK-N-DZ | 5.04
29 | A-427 | 0.831
30 | HCC364 | 2.86 ± 4.4
31 | SW 626 | 3.67
32 | G140 | 1.28 ± 1.7
33 | NCI-H1792 | 2.24
34 | HCC1576 | 0.476
35 | NCI-H1734 | 0.237
36 | MCF-7 | 2.5 ± 1.7
37 | SNU-1 | 1.89
38 | CX-1 | 1.82 ± 2
39 | PK-45H | 1.2 ± 0.94
40 | SW 1463 | 7.83 ± 8.2
41 | HNT-34 | 0.076 ± 0.067
42 | GI-1 | 0.311
43 | HCC2279 | 3.55 ± 6.2
44 | 1624-17095 (Tumor C) | 0.777
45 | 786-O | 1.24 ± 1.8
46 | BICR 22 | 0.854
47 | SK-MEL-2 | 1.16 ± 0.55
48 | SK-HEP-1 | 0.205

Row | Test System | absolute IC50 [nM]
49 | 143B | 0.191
50 | SJCRH30 (RC13) | 0.187
51 | U-2932 | 0.213 ± 0.23
52 | SJCRH30 | 0.422
53 | COV413B | 2.73 ± 3.9
54 | KG-1 | 1.22 ± 0.91
55 | MKN-1 | 0.867 ± 1.1
56 | SKG-IIIa | 17.7
57 | NCI-H2126 | 3.94
58 | Caki-2 | 10.2 ± 19
59 | CGTH-W-1 | 0.189
60 | HEC-151 | 0.352
61 | LL/2 | 0.449
62 | HEC-116 | 0.464
63 | KLN 205 | 2.12
64 | NCI-H2347 | 1.14 ± 2.7
65 | GR-M | 0.107 ± 0.064
66 | SNB-19 | 0.187
67 | MDA-MB-468 | 0.353 ± 0.36
68 | G-402 | 0.349 ± 0.14
69 | COLO 684 | 5
70 | Kasumi-1 | 4.11
71 | HEC-50B | 0.713
72 | NCI-H2804 | 0.718 ± 0.98

Row | Test System | absolute IC50 [nM]
73 | WiDr | 1.38 ± 0.42
74 | ML-2 | 0.0572 ± 0.013
75 | PA-1 | 0.0473 ± 0.056
76 | U-87 MG | 3.32
77 | HCC78 | 0.114 ± 0.099
78 | JHH-6 | 3.4
79 | LNCaP/Ner | 0.0717
80 | RL95-2 | 1.9
81 | L-363 | 0.384 ± 0.54
82 | SK-N-BE(2) | 1.64
83 | NCI-H146 | 0.508
84 | PC-9 | 5.48
85 | HCC4017 | 0.193
86 | LNCAP clone FGC | 0.365 ± 0.13
87 | HCC193 | 3.17 ± 2.2
88 | A-498 | 2.47
89 | HOP-18 | 3.89
90 | NCI-H522 | 0.544
91 | SNU-C1 | 3.4 ± 0.35
92 | HCC850 | 0.178
93 | VP267 | 4.86
94 | KYSE-180 | 0.667
95 | OE21 | 0.259
96 | KMS-12-PE | 0.433

Row | Test System | absolute IC50 [nM]
97 | C32TG | 0.2
98 | SNU-638 | 0.137 ± 0.046
99 | KHM-1B | 0.335 ± 0.24
100 | G142 | 0.556 ± 1
101 | MDA-MB-435 | 1.76 ± 2.4
102 | HCC4019 | 4.51 ± 2.9
103 | WSU-DLCL2 | 0.358 ± 0.36
104 | HCC1347 | 2.49
105 | Panc 05.04 | 1.68 ± 0.4
106 | Calu-6 | 6.78
107 | NCI-H810 | 1.42
108 | NCI-H196 | 2.69
109 | IGROV-1 | 1.14 ± 1.6
110 | GP5d | 1.93 ± 1.5
111 | Reh | 0.757
112 | AU565 | 0.835 ± 0.35
113 | VP229 | 3 ± 3.4
114 | COLO 783 | 3.44
115 | 537 MEL | 1.23 ± 0.94
116 | HCC880 | 2.86
117 | HUP-T4 | 1.09 ± 1.1
118 | LUDLU-1 | 9.43
119 | CHP-212 | 0.105
120 | NCI-H358 | 0.959 ± 0.56

Row | Test System | absolute IC50 [nM]
121 | NCI-H2373 | 0.217 ± 0.18
122 | UACC-257 | 2.41
123 | Clone M-3 Cloudman S91 melanoma | 0.202
124 | A20 | < 0.0152
125 | B16-F10 Luciferase | 0.894
126 | NCI-H1651 | 0.443
127 | HEp-2 | 0.322
128 | KARPAS-620 | 2.96
129 | COR-L279 | 0.082
130 | NCI-H1648 | 8.58
131 | NCI-H1944 | 1.06 ± 0.29
132 | OUMS-23 | 1.71 ± 0.89
133 | 769-P | 4.38 ± 4.6
134 | HCT-8 | 1.43
135 | COLO 858 | 1.72 ± 1.4
136 | OvCA 429 | 0.139 ± 0.067
137 | HCS-2 | 0.957
138 | OAW42 | 1.38 ± 1.6
139 | KMRC-20 | 3.45
140 | HCC1054 | 0.292
141 | EL4 | 0.0929
142 | MKN-74 | 2.17
143 | NCI-H1650 | 2.52
144 | SNU-449 | 5.84

Row | Test System | absolute IC50 [nM]
145 | KYSE-30 | 0.368
146 | T.T | 1.93
147 | COLO 201 | 0.782
148 | SW 780 | 0.754
149 | KALS-1 | 0.336
150 | NCI-H1666 | 0.888 ± 0.43
151 | HEC-88nu | 3.07
152 | NCI-H1975 | 2
153 | CAL-85-1 | 1.67 ± 0.48
154 | NB-4 | 0.29
155 | UKE-1 | 0.0189 ± 0.0056
156 | Hs 578T | 1.51 ± 1.3
157 | SUM 149PT | 1.68 ± 1.6
158 | B-CPAP | 0.345
159 | NCI-N417 | 0.737
160 | HMY-1 | 1.17 ± 0.94
161 | MKN-45 | 1.08 ± 0.44
162 | COV318 | 5.85 ± 6.6
163 | G-401 | 0.305 ± 0.16
164 | UCSD-242l | 1.29 ± 0.84
165 | NCI-H1915 | 2.4
166 | HEC-59 | 0.472
167 | A172 | 0.554
168 | SK-N-FI | 8.79 ± 11

Row | Test System | absolute IC50 [nM]
169 | huH-1 | 2.28
170 | MEL-JUSO | 0.875 ± 1
171 | MMAc | 0.868
172 | SW 900 | 3.18
173 | NCI-H226 | 1.27 ± 2.5
174 | NCI-H838 | 1.34
175 | SNU-216 | 1.57 ± 2.9
176 | TRAMP-C2 | 0.154
177 | QGP-1 | 5.47 ± 0.39
178 | MDA-MB-361 | 1.96 ± 2.5
179 | NCI-H2722 | 0.343
180 | HCC827 | 2.16 ± 4.3
181 | 1624-16997 (Tumor B) | 0.909
182 | HCC1171 | 1.01 ± 0.16
183 | HCC1954 | 1.35 ± 3.1
184 | SNU-16 | 0.344 ± 0.1
185 | FA9JTOTERT | 0.435
186 | MT-3 | 0.947 ± 0.64
187 | CaR-1 | 0.535 ± 0.21
188 | OVCA 420 | 2.24 ± 2.3
189 | CCF-STTG1 | 2.87
190 | RCM-1 | 3.33 ± 5.4
